Columns and labels:
LOX = test: Immunoblots for LOX in CT2A cells and 005 GSCs; assay type: cell-based, mouse; details: immunoblot, SR9009 5 μM
Method: (§1) Cell Culture. The GBM cell lines U87, U251, SF763, LN229, and CT2A, as well as 293T cells were cultured in Dulbecco's Modified Eagle's Medium (DMEM; Gibco, #11995-065). The mouse glioma cell line GL261 cells and SIM-A9 microglia were cultured in Dulbecco's Modified Eagle Medium-Ham's F12 medium (Gibco, #10565-018). HMC3 microglia were cultured in Eagle's Minimum Essential Medium (ATCC, #30-2003). THP-1 macrophages were cultured in RPMI 1640 medium (Gibco, #11875093). All cell lines were cultured in the indicated medium containing 10% fetal bovine serum (FBS; Fisher Scientific, #16140071) and 1:100 antibiotic-antimycotic (Gibco, #15140-122), and were purchased from the American Type Culture Collection (ATCC). Human GSCs (GSC23 and GSC7-10) and mouse GBM tumor-derived 005 GSCs and QPP7 GSCs were cultured in neural stem cell (NSC) proliferation media (Millipore, #SCM005) containing 20 ng/mL epidermal growth factor (EGF; PeproTech, #AF-100-15) and basic fibroblast growth factor (bFGF; PeproTech, #100-18B). Human GSCs were gifted by Dr. Frederick F. Lang from the Brain Tumor Center (The University of Texas MD Anderson Cancer Center). 005 GSCs and QPP7 GSCs were provided by Dr. Samuel D. Rabkin (Massachusetts General Hospital) and Dr. Jian Hu (The University of Texas MD Anderson Cancer Center), respectively. PTEN CRISPR KO in SF763 and LN229 cells were generated. […]

HMC3 microglia = test: Transwell migration assay of HMC3 microglia with U87 conditioned media; assay type: cell-based; details: conditioned media from U87 cells pretreated with BAPN 200 μM; 10 hours
Method: Migration assay. To study the relationship between macrophages and microglia, HMC3 microglia or THP-1 macrophages were seeded into the 24-well plates (receiver wells) using serum-containing culture medium for 24 hours to reach 40-60% confluence and then stimulated with or without U87 cell CM for additional 24 hours. After that, cells were washed with PBS twice and cultured in serum-free culture medium. For upper chambers, THP-1 macrophages (2×10^5) and HMC3 microglia (5×10^4) were suspended in serum-free culture medium and seeded into […] (Corning, #3421) and […] (Corning, #3422) 24-well Transwell inserts, respectively. To study the role of GBM cells on microglia migration, HMC3 microglia (5×10^4) were suspended in serum-free culture medium and seeded into 8.0 μm inserts. SIM-A9 microglia (1×10^5) and THP-1 macrophages (1×10^5) were suspended in serum-free culture medium and seeded into 5.0 μm inserts. The CM from LOX-depleted or inhibited U87 cells, LOX-overexpressed GL261 cells, or SR9009-treated U87 cells were added to the receiver wells, respectively. After 10 hours, migrated cells were fixed with 4% PFA (ThermoFisher, #J61899.AK) for 30 minutes and stained with crystal violet (Sigma-Aldrich, #C-3886) for another 30 minutes. The membrane inserts were washed with water and imaged under an EVOS microscope. The number of transferred cells was counted using ImageJ.

PD-L1 = test: Immunoblots for PD-L1 in PTEN-deficient GBM cells; assay type: cell-based, human and mouse; details: immunoblot; U87, PTEN-KO SF763, CT2A, 005 GSC, GSC23, GSC7-10; 24 hours
Method: as §1

| Compound | LOX expression (LOX) | migration of HMC3 microglia (HMC3 microglia) | expression of PD-L1 (PD-L1) |
| --- | --- | --- | --- |
| CCOC(=O)N1CCC(CN(Cc2ccc(Cl)cc2)Cc2ccc([N+](=O)[O-])s2)C1 (stereo not drawn) [SR9009] | did not affect |  |  |
| N#CCCN [BAPN, β-aminopropionitrile] |  | increased the migration ability | upregulated |
